Results taken from publication PMC9939733 (The Journal of Biological Chemistry, 2023).
Positions count from the first letter of the chain named. Structures can show the parent of a compound that is named as a salt.

What follows are molecules tested against T1, R140Q IDH2 (Homo sapiens, UniProt P48735, R140Q) (assay: Absorbance assay (NADPH consumption), substrate turnover in the absence of 2OG). Conditions: no 2OG; 6.0 mM test compound, 0.03 μM R140Q IDH2, 50 μM NADPH; 2OG = 100.
T1 construct: made in house; host or cells: Sf21 insect cells (cell pellets prepared at Evotec)
T1 sequence (P48735 40-452 R140Q): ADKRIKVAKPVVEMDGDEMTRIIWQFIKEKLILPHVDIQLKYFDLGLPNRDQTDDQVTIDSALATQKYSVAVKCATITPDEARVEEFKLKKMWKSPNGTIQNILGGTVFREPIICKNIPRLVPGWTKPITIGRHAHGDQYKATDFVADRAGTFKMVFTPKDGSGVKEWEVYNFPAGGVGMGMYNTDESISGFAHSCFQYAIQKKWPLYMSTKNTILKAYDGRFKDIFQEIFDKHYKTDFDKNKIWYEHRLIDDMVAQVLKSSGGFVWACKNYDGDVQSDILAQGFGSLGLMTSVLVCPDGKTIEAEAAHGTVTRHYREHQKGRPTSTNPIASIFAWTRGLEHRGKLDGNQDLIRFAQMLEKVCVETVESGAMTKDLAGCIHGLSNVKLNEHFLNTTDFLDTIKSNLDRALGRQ
Format: biochemical
Outline: (§1)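 Values come from four technical replicates per reaction; compound transfer used a simultaneous pipettor and reagent dispensing triggered the start.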
`CCOC(=O)/C=C/C(=O)O` [mono-ethyl fumarate] was tested, and the “activity [%] (%-substrate conversion after 20 min incubation)” value (from here on “activity [%]”) was under 10%.
With `COC(=O)/C=C/C(=O)OC` [dimethyl fumarate] the “activity [%]” value was under 10%.
For `O=C(O)/C=C/C(=O)O` [fumaric acid], the “activity [%]” value was under 10%.
For `O=C(O)CC(S)C(=O)O` (stereo not drawn) [2-mercaptosuccinic acid], the “activity [%]” value was under 10%.
In the case of `O=C(O)C(=O)CS` [mercaptopyruvic acid], the “activity [%]” value is reported as under 10%.
In the case of `CC(=O)C(=O)O` [pyruvic acid], the “activity [%]” value is reported as under 10%.
With `O=C(O)CC(=O)C(=O)O` [oxaloacetic acid] the “activity [%]” value was under 10%.
`C/C(=C\C(=O)O)C(=O)O` [mesaconic acid] was tested, and the “activity [%]” value was under 10%.

What follows are molecules tested against T2, R172K IDH2 (Homo sapiens, UniProt P48735, R172K) in the same assay as above. Conditions: no 2OG; 1.0 mM test compound, 0.03 μM R172K IDH2, 50 μM NADPH; 2OG = 100.
T2 construct: made in house; host or cells: Sf21 insect cells (cell pellets prepared at Evotec)
T2 sequence (P48735 40-452 R172K): T1 sequence (P48735 40-452 R140Q) with Q101R, R133K
Format: biochemical
Outline: as §1
With `CCOC(=O)/C=C/C(=O)O` [mono-ethyl fumarate] the “activity [%]” value was under 10%.
`COC(=O)/C=C/C(=O)OC` [dimethyl fumarate] was tested, and the “activity [%]” value was under 10%.
`O=C(O)/C=C/C(=O)O` [fumaric acid] was tested, and the “activity [%]” value was under 10%.
`O=C(O)CC(S)C(=O)O` (stereo not drawn) [2-mercaptosuccinic acid] was tested, and the “activity [%]” value was under 10%.
In the case of `O=C(O)C(=O)CS` [mercaptopyruvic acid], the “activity [%]” value is reported as under 10%.
`CC(=O)C(=O)O` [pyruvic acid] was tested, and the “activity [%]” value was under 10%.
`O=C(O)CC(=O)C(=O)O` [oxaloacetic acid] was tested, and the “activity [%]” value was under 10%.
`C/C(=C\C(=O)O)C(=O)O` [mesaconic acid] was tested, and the “activity [%]” value was under 10%.

What follows are molecules tested against T3, R132H IDH1 (Homo sapiens, UniProt O75874, R132H) in the same assay as above. Conditions: no 2OG; […] test compound, 0.03 μM R132H IDH1, 50 μM NADPH; 2OG = 100.
T3 sequence (O75874 whole entry R132H): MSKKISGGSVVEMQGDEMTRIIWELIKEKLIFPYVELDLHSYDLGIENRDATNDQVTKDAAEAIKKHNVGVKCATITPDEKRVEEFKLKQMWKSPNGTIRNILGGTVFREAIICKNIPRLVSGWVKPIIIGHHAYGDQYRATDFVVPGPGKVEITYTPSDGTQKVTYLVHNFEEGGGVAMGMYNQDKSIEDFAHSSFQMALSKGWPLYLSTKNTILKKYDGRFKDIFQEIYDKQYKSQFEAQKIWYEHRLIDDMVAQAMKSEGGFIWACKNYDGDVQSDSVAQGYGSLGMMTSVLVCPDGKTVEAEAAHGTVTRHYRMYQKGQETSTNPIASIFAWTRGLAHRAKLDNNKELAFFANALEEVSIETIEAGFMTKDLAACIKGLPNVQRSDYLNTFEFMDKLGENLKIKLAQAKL
Format: biochemical
Design: made in house; host or cells: Escherichia coli BL21(DE3) pLyS
Outline: as §1
In the case of `CCOC(=O)/C=C/C(=O)O` [mono-ethyl fumarate], the “activity [%]” value is reported as under 10%.
For `COC(=O)/C=C/C(=O)OC` [dimethyl fumarate], the “activity [%]” value was under 10%.
`O=C(O)/C=C/C(=O)O` [fumaric acid] was tested, and the “activity [%]” value was under 10%.
With `O=C(O)CC(S)C(=O)O` (stereo not drawn) [2-mercaptosuccinic acid] the “activity [%]” value was under 10%.
In the case of `O=C(O)C(=O)CS` [mercaptopyruvic acid], the “activity [%]” value is reported as under 10%.
For `CC(=O)C(=O)O` [pyruvic acid], the “activity [%]” value was under 10%.
In the case of `O=C(O)CC(=O)C(=O)O` [oxaloacetic acid], the “activity [%]” value is reported as under 10%.
For `C/C(=C\C(=O)O)C(=O)O` [mesaconic acid], the “activity [%]” value was under 10%.

The molecules below were run against T4, WT IDH1 (Homo sapiens, UniProt O75874) (assay: Absorbance assay, substrate activity in the absence of DL-isocitrate). Conditions: no DL-isocitrate; […] test compound, 75 μM NADP+, 2.0 nM WT IDH1; compared to DL-isocitrate.
T4 construct: made in house; host or cells: Escherichia coli BL21(DE3) pLyS
T4 sequence (O75874 whole entry): as the sequence (O75874 whole entry R132H) above, with H132R counted along it
Format: biochemical
Outline: as §1
`CCOC(=O)/C=C/C(=O)O` [mono-ethyl fumarate] was tested, and the “activity [%]” value was under 10%.
In the case of `COC(=O)/C=C/C(=O)OC` [dimethyl fumarate], the “activity [%]” value is reported as under 10%.
For `O=C(O)/C=C/C(=O)O` [fumaric acid], the “activity [%]” value was under 10%.
For `O=C(O)CC(S)C(=O)O` (stereo not drawn) [2-mercaptosuccinic acid], the “activity [%]” value was under 10%.
`O=C(O)C(=O)CS` [mercaptopyruvic acid] was tested, and the “activity [%]” value was under 10%.
`CC(=O)C(=O)O` [pyruvic acid] was tested, and the “activity [%]” value was under 10%.
With `O=C(O)CC(=O)C(=O)O` [oxaloacetic acid] the “activity [%]” value was under 10%.
`C/C(=C\C(=O)O)C(=O)O` [mesaconic acid] was tested, and the “activity [%]” value was under 10%.

The molecules below were run against T5, WT IDH2 (Homo sapiens, UniProt P48735) in the same assay as above. Conditions: no DL-isocitrate; […] test compound, 75 μM NADP+, 2.0 nM WT IDH2; compared to DL-isocitrate.
T5 construct: made in house; host or cells: Sf21 insect cells (cell pellets prepared at Evotec)
T5 sequence (P48735 40-452): T1 sequence (P48735 40-452 R140Q) with Q101R
Format: biochemical
Outline: as §1
`CCOC(=O)/C=C/C(=O)O` [mono-ethyl fumarate] was tested, and the “activity [%]” value was under 10%.
With `COC(=O)/C=C/C(=O)OC` [dimethyl fumarate] the “activity [%]” value was under 10%.
In the case of `O=C(O)/C=C/C(=O)O` [fumaric acid], the “activity [%]” value is reported as under 10%.
In the case of `O=C(O)CC(S)C(=O)O` (stereo not drawn) [2-mercaptosuccinic acid], the “activity [%]” value is reported as under 10%.
With `O=C(O)C(=O)CS` [mercaptopyruvic acid] the “activity [%]” value was under 10%.
For `CC(=O)C(=O)O` [pyruvic acid], the “activity [%]” value was under 10%.
`O=C(O)CC(=O)C(=O)O` [oxaloacetic acid] was tested, and the “activity [%]” value was under 10%.
For `C/C(=C\C(=O)O)C(=O)O` [mesaconic acid], the “activity [%]” value was under 10%.

These molecules were tested against T3, R132H IDH1 (assay: Absorbance assay, variant activity in the presence of equimolar 2OG (inhibition screen)). Conditions: […] 2OG and […] test compound, 0.03 μM R132H IDH1, 50 μM NADPH.
Format: biochemical
Design: made in house; host or cells: Escherichia coli BL21(DE3) pLyS
Outline: as §1
With `CCOC(=O)/C=C/C(=O)O` [mono-ethyl fumarate] the “activity [%]” value was 94 ± 8%.
`COC(=O)/C=C/C(=O)OC` [dimethyl fumarate] was tested, and the “activity [%]” value was 85 ± 3%.
For `O=C(O)/C=C/C(=O)O` [fumaric acid], the “activity [%]” value was 86 ± 3%.
With `O=C(O)CC(S)C(=O)O` (stereo not drawn) [2-mercaptosuccinic acid] the “activity [%]” value was 104 ± 4%.
With `O=C(O)C(=O)CS` [mercaptopyruvic acid] the “activity [%]” value was 51 ± 5%.
`CC(=O)C(=O)O` [pyruvic acid] was tested, and the “activity [%]” value was 112 ± 8%.
`O=C(O)CC(=O)C(=O)O` [oxaloacetic acid] was tested, and the “activity [%]” value was 106 ± 2%.
In the case of `C/C(=C\C(=O)O)C(=O)O` [mesaconic acid], the “activity [%]” value is reported as 105 ± 3%.

What follows are molecules tested against T1, R140Q IDH2 in the same assay as above. Conditions: 6.0 mM 2OG and 6.0 mM test compound, 0.03 μM R140Q IDH2, 50 μM NADPH.
Format: biochemical
Outline: as §1
With `CCOC(=O)/C=C/C(=O)O` [mono-ethyl fumarate] the “activity [%]” value was 108 ± 7%.
In the case of `COC(=O)/C=C/C(=O)OC` [dimethyl fumarate], the “activity [%]” value is reported as 61 ± 11%.
In the case of `O=C(O)/C=C/C(=O)O` [fumaric acid], the “activity [%]” value is reported as 112 ± 13%.
`O=C(O)CC(S)C(=O)O` (stereo not drawn) [2-mercaptosuccinic acid] was tested, and the “activity [%]” value was 91 ± 5%.
`O=C(O)C(=O)CS` [mercaptopyruvic acid] was tested, and the “activity [%]” value was 91 ± 5%.
`CC(=O)C(=O)O` [pyruvic acid] was tested, and the “activity [%]” value was 108 ± 4%.
In the case of `O=C(O)CC(=O)C(=O)O` [oxaloacetic acid], the “activity [%]” value is reported as 110 ± 3%.
With `C/C(=C\C(=O)O)C(=O)O` [mesaconic acid] the “activity [%]” value was 116 ± 9%.

Each molecule was assayed against T2, R172K IDH2 in the same assay as above. Conditions: 1.0 mM 2OG and 1.0 mM test compound, 0.03 μM R172K IDH2, 50 μM NADPH.
Format: biochemical
Outline: as §1
`CCOC(=O)/C=C/C(=O)O` [mono-ethyl fumarate] was tested, and the “activity [%]” value was 107 ± 3%.
For `COC(=O)/C=C/C(=O)OC` [dimethyl fumarate], the “activity [%]” value was 91 ± 2%.
`O=C(O)/C=C/C(=O)O` [fumaric acid] was tested, and the “activity [%]” value was 87 ± 6%.
`O=C(O)CC(S)C(=O)O` (stereo not drawn) [2-mercaptosuccinic acid] was tested, and the “activity [%]” value was 99 ± 4%.
`O=C(O)C(=O)CS` [mercaptopyruvic acid] was tested, and the “activity [%]” value was 54 ± 1%.
For `CC(=O)C(=O)O` [pyruvic acid], the “activity [%]” value was 114 ± 12%.
With `O=C(O)CC(=O)C(=O)O` [oxaloacetic acid] the “activity [%]” value was 96 ± 8%.
`C/C(=C\C(=O)O)C(=O)O` [mesaconic acid] was tested, and the “activity [%]” value was 104 ± 5%.

Same assay, conditions: equimolar 2OG (1.0 mM)
In the case of `O=C(O)C(=O)CS` [mercaptopyruvic acid], the inhibition is reported as ~ 50%.

These molecules were tested against T4, WT IDH1 (assay: Absorbance assay, WT activity in the presence of equimolar DL-isocitrate (inhibition)). Conditions: […] isocitrate and […] test compound, 75 μM NADP+, 2.0 nM WT IDH1.
Format: biochemical
Outline: as §1
`CCOC(=O)/C=C/C(=O)O` [mono-ethyl fumarate] was tested, and the “activity [%]” value was 106 ± 4%.
With `COC(=O)/C=C/C(=O)OC` [dimethyl fumarate] the “activity [%]” value was 104 ± 4%.
In the case of `O=C(O)/C=C/C(=O)O` [fumaric acid], the “activity [%]” value is reported as 98 ± 1%.
With `O=C(O)CC(S)C(=O)O` (stereo not drawn) [2-mercaptosuccinic acid] the “activity [%]” value was 109 ± 4%.
`O=C(O)C(=O)CS` [mercaptopyruvic acid] was tested, and the “activity [%]” value was 88 ± 1%.
With `CC(=O)C(=O)O` [pyruvic acid] the “activity [%]” value was 111 ± 6%.
In the case of `O=C(O)CC(=O)C(=O)O` [oxaloacetic acid], the “activity [%]” value is reported as 100 ± 1%.
`C/C(=C\C(=O)O)C(=O)O` [mesaconic acid] was tested, and the “activity [%]” value was 105 ± 2%.

Each molecule was assayed against T5, WT IDH2 in the same assay as above. Conditions: […] isocitrate and […] test compound, 75 μM NADP+, 2.0 nM WT IDH2.
Format: biochemical
Outline: as §1
For `CCOC(=O)/C=C/C(=O)O` [mono-ethyl fumarate], the “activity [%]” value was 96 ± 5%.
In the case of `COC(=O)/C=C/C(=O)OC` [dimethyl fumarate], the “activity [%]” value is reported as 100 ± 3%.
With `O=C(O)/C=C/C(=O)O` [fumaric acid] the “activity [%]” value was 97 ± 1%.
With `O=C(O)CC(S)C(=O)O` (stereo not drawn) [2-mercaptosuccinic acid] the “activity [%]” value was 100 ± 1%.
In the case of `O=C(O)C(=O)CS` [mercaptopyruvic acid], the “activity [%]” value is reported as 85 ± 1%.
In the case of `CC(=O)C(=O)O` [pyruvic acid], the “activity [%]” value is reported as 97 ± 5%.
In the case of `O=C(O)CC(=O)C(=O)O` [oxaloacetic acid], the “activity [%]” value is reported as 98 ± 2%.
`C/C(=C\C(=O)O)C(=O)O` [mesaconic acid] was tested, and the “activity [%]” value was 100 ± 2%.
